# Test results reported in patent US12268665B2, “Combination of immunotherapies with MDM2 inhibitors” (ASCENTAGE PHARMA (SUZHOU) CO., LTD., priority 2018, dated 2025).
# Like-named read-outs stand apart in the source and are kept apart here.
# Legend:
# [1] = Phase I study APG-115-US-001: pharmacokinetics (LC/MS/MS, K2EDTA human plasma); format: in vivo; conditions: dose range of 20-300 mg
# Experimental: For PK study of APG-115, APG-115 in K2EDTA human plasma was determined using an LC/MS/MS method using D5-APG-115 as the internal standard (IS). APG-115 and the IS were extracted using protein precipitation extraction from human plasma. […] MS/MS detection was set at mass transitions of m/z 642.3→246.3 for APG-115 and m/z 647.4→246.1 for D5-APG-115 (IS) in TIS positive mode.
# [2] = Phase I study APG-115-US-001 (NCT02935907): safety; format: in vivo
# Experimental: This Phase I study (APG-115-US-001) was designed to assess safety, toxicity, pharmacokinetics (PK), pharmacodynamics (PD), and antitumor activity of APG-115 orally in patients with advanced solid tumors in US (NCT02935907).
# For Safety study of APG-115, the safety evaluation included vital signs, electrocardiogram (ECG) parameters, Easter Cooperative Oncology Group (ECOG) performance status data, clinical laboratory tests and adverse event data. Safety assessments were performed in each treatment cycle.
# Single dose escalation study was conducted. A standard “3+3” design was employed to determine the maximum tolerated dose (MTD) of APG-115 by assessing the dose limiting toxicity (DLT) of APG-115. […] of APG-115 was tested: 10, 20, 50, 100, 200, and 300 mg. APG-115 was administrated orally every other day (QOD) for a consecutive 3 weeks (i.e. dosed at Day 1, 3, 5, 7, 9, 11, 13, 15, 17, 19, and 21), with one week dosing off as 4-weeks a cycle. […] The scheme of the trial design is provided below.
# [3] = test system: stimulated mouse splenocytes; test: Cytokine production in stimulated mouse splenocytes (MSD V-PLEX); format: cell-based; conditions: 250 nM, 24 h
# Experimental: The effect of APG-115 on cytokine production in stimulated mouse splenocytes was investigated. Mouse splenocytes freshly isolated from mice were stimulated with 5 μg/ml plate-bound anti-CD3 and 2 μg/ml anti-CD28 in the presence of APG-115 (250 nM) or DMSO for 24 h. After the treatment, supernatants were collected from the cell cultures and then cytokines were measured by MSD V-PLEX kit which enabled to test 10 cytokines.
# [4] = test system: Trp53 mutant MC38 syngeneic murine colon tumor; test: In vivo efficacy study in MC38 model; design: species or system mouse; conditions: for T/C (%) d17 / RTV (Mean ± SEM) d17: anti-PD-1 5 mg/kg i.p. biw; for RTV (Mean ± SEM) d17: C57BL/6 mice
# Experimental: Each mouse was inoculated subcutaneously at the right flank region with MC38 tumor cells (5×10^5) in 0.1 mL of PBS for tumor development. The treatments were initiated when the mean tumor size reached ˜63 mm^3. The test articles were administered to the tumor-bearing mice according to the regimen shown in the experimental design Table 10. The day of start dosing was defined as d1.
# Efficacy of combination treatment with APG-115 plus anti-PD-1 antibody was further evaluated in a Trp53 mutant MC38 syngeneic mouse tumor model on a C57BL/6 background.
# [5] = test system: MH-22A syngeneic tumor model; test: Efficacy in the TIL analysis study, MH-22A model (d7); format: in vivo, mouse; conditions: APG-115 10 mg/kg p.o. q2d; anti-PD-1 5 mg/kg i.p. biw; epacadostat 100 mg/kg p.o. bid; × 6 d
# Experimental: Each mouse was inoculated subcutaneously at the right flank region with MH-22A tumor cells (5×10^6) in 0.2 mL of PBS for tumor development. The treatments were started when the mean tumor size reached 60 mm^3. The test articles were administered to the tumor-bearing mice according to the regimen shown in the experimental design Table 6. The day of start dosing was defined as d1.
# Mice bearing MH-22A murine hepatoma tumors were treated with various agent(s) under different regimens as indicated. Isotype control antibody was included in the control.
# [6] = Pharmacokinetic (PK) analysis in MH-22A tumor-bearing mice (LC/MS/MS); format: in vivo, mouse; conditions: for concentration at 4 h: oral
# Experimental: The quantitative LC/MS/MS analysis was conducted using an Exion HPLC system (AB Sciex, Ontario, Canada) coupled to an API 5500 mass spectrometer (AB Sciex, Ontario, Canada) equipped with an API electrospray ionization (ESI) source. The Phenomenex Titank phenyl-Hexyl column (50 mm×2.1 mm, 5 μm particle size) was used to achieved HPLC separation. The injection volume was 2 μl and the flow rate was kept constantly at 0.5 ml/min. Chromatography was performed with mobile phase A, acetonitrile:water:formic (5:95:0.1, by volume) and B, acetonitrile:water:formic (95:5:0.1, by volume). The mass spectrometer was operated at ESI positive ion mode for APG-115 while ESI negative mode for epacadostat. The detection of the ions was performed in the multiple reaction monitoring (MRM) mode, monitoring the transition of m/z 642.0→246.1 and 271.1→172.0 for APG-115 and IS (tolbutamide) in positive mode, 435.9→338.8 and 269.2→169.2 for epacadostat and IS (tolbutamide) in negative mode, respectively. Compounds parameters, declustering potential (DP), collision energy (CE) were 51, 61 V, 80, 18 V for APG-115 and IS in positive mode, −61, −15 V and −90, −23.5 V for epacadostat and IS in negative mode, respectively.
# Blood and tumor samples were collected from 5 mice/group in group-1, group-2, group-3 and group-5 4 hrs after the final dose on […]. Blood samples were collected from 5 mice/group in group-4, group-6, group-7 and group-8 4 hrs after the final dose on d29. Approximately 100 μl blood were collected in EDTA-2K tube and 50 μl plasma were collected for PK analysis. All samples were stored at −80° C. until analysis.
# In efficacy study of Example 2.1, mice in vehicle, APG-115 10 mg/kg and 50 mg/kg, and epacadostat single-agent groups were euthanized on d15 as described above. To assess PK characteristics of APG-115 and epacadostat in this study, plasma and tissue samples were collected 4 h after the last dosing on d15.
compound,measurement,setting,value
CCN1[C@@H](C(=O)NC23CCC(C(=O)O)(CC2)CC3)[C@H](c2cccc(Cl)c2F)[C@]2(C(=O)Nc3cc(Cl)ccc32)C12CCCCC2 [APG-115],AUC and Cmax versus dose,[1],generally increase dose proportionally
same,MTD/RP2D of APG-115 monotherapy,"[2]; QOD 3 weeks on, 1 week off",100 mg
same,pts discontinued treatment: Adverse Event,"[2]; human, in vivo",3
same,DLTs observed during cycle 1,[2]; in vivo,Four
same,events determined as DLTs,[2]; in vivo,"Platelet count decreased, fatigue, and nausea"
same,patients with Absolute neutrophil count decreased (less than 1.00×10^3/uL) after C2D21,[2]; in vivo,three patients
same,"expression levels of IL-1β, IL-5, KC/GRO, IL-12p70",[3],below detection limit
same,"inflammatory cytokines including IFN-γ, IL-2, TNF-α, IL-10 and IL-4",[3]; anti-CD3/anti-CD28 stimulated,upregulation
same,T/C (%) d17,[4]; APG-115 10 mg/kg p.o. q2d,73%
same,RTV (Mean ± SEM) d17,[4]; APG-115 10 mg/kg p.o. q2d,15.3 ± 2.7
same,T/C (%) d17,[4]; APG-115 50 mg/kg p.o. q2d,94%
same,RTV (Mean ± SEM) d17,[4]; APG-115 50 mg/kg p.o. q2d,19.8 ± 2.2
same,antitumor activity as single agent,[4]; APG-115 10 and 50 mg/kg,minimal antitumor activity
same,RTV (Mean) d7,[5],12.8
same,T/C (%) d7,[5],83%
same,increases in systemic exposure and tissue distribution with dose,[6]; 10 vs 50 mg/kg,approximately dose proportional
same,pharmacokinetic interaction with anti-PD-1 antibody,"[6]; mouse, in vivo",no apparent pharmacokinetic interaction
same,concentration at 4 h,"[6]; mouse, plasma, 10 mg/kg, 10 mg/kg daily oral for 15 days, single agent, 4 h after last dosing, read-out: plasma concentration of APG-115",157 ng/mL
same,concentration at 4 h,"[6]; mouse, plasma, 10 mg/kg, 10 mg/kg in combination with anti-PD-1, read-out: plasma concentration of APG-115",120 ng/mL
same,concentration at 4 h,"[6]; mouse, plasma, 50 mg/kg, 50 mg/kg daily oral for 15 days, single agent, 4 h after last dosing, read-out: plasma concentration of APG-115",1230 ng/mL
same,concentration at 4 h,"[6]; mouse, plasma, 50 mg/kg, 50 mg/kg in combination with anti-PD-1, read-out: plasma concentration of APG-115",2150 ng/mL
same,concentration at 4 h,"[6]; mouse, tumor, 10 mg/kg, 10 mg/kg as single agent, read-out: APG-115 concentration in tumor tissues",152 ng/g
same,concentration at 4 h,"[6]; mouse, tumor, 50 mg/kg, 50 mg/kg as single agent, read-out: APG-115 concentration in tumor tissues",1470 ng/g
